# Patent publication US20240327430A1 (Breakpoint Therapeutics GmbH, priority 2023, published 2024)
# Molecular target: truncated Polθ protein (Polθ-Hel containing the helicase domain (67-894)) (Homo sapiens (Human), UniProt O75417)
# Test: Polθ ATPase assay (Biological Assay 1, ADP-Glo luminescence)
# Type: biochemical
# Settings: Polθ-Hel 0.5 nM, DNA substrate 500 nM, ATP 60 μM, 23° C.; read-out: Pole ATPase assay IC50
# How it was run: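 Polθ-Hel (0.5 nM) with 500 nM ssDNA oligo in pH 8.8 Tris buffer (5 mM MgCl2, 1 mM DTT) was preincubated with compound 30 min at 23 °C. The reaction ran 60 min after 60 μM ATP was added (stated as the added solution, not final). ADP formed was detected by ADP-Glo luminescence to derive IC50.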
# Sequence of truncated Polθ protein (Polθ-Hel containing the helicase domain (67-894)) (O75417 67-894): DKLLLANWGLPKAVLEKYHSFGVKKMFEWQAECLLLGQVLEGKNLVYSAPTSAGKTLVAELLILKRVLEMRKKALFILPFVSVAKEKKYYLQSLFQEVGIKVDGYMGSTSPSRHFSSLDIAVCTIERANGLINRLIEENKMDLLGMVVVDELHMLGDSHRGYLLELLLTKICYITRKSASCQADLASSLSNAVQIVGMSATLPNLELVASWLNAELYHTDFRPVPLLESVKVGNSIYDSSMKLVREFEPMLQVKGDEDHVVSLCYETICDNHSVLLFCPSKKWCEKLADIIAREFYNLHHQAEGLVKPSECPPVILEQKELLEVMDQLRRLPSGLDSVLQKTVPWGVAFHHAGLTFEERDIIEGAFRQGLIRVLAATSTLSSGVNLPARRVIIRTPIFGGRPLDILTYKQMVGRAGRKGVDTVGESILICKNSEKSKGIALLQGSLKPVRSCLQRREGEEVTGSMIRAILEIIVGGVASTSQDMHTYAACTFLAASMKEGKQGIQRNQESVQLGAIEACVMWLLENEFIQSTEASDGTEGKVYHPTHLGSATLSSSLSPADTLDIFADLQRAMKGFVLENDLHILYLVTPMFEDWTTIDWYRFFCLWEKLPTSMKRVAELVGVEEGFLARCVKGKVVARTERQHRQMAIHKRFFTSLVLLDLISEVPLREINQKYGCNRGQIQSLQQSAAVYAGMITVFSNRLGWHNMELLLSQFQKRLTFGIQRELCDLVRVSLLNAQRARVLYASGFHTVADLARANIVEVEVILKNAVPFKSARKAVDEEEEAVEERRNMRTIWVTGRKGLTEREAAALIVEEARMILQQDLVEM
row,IC50 [nM],Compound
1,< 100,"COc1cnc(Cl)cc1-c1cc(C)ncc1C(=O)Nc1nc2cnc(Cl)nc2s1 [Example 6, 2′-chloro-N-{5-chloro-[1,3]thiazolo[5,4-d]pyrimidin-2-yl}-5′-methoxy-6-methyl-[4,4′-bipyridine]-3-carboxamide]"
2,< 100,"COc1cnc(Cl)cc1-c1cc(C)ncc1C(=O)Nc1nc2cnc(N3CCN(C(C)=O)CC3)nc2s1 [Example 45, N-[5-(4-acetylpiperazin-1-yl)-[1,3]thiazolo[5,4-d]pyrimidin-2-yl]-2′-chloro-5′-methoxy-6-methyl-[4,4′-bipyridine]-3-carboxamide]"
